These results are taken from patent US20210292333A1, “CONDENSED AZAHETEROARYL COMPOUNDS HAVING ANTIBACTERIAL ACTIVITY AGAINST TU[…]” (CADILA HEALTHCARE LIMITED, priority 2018, published 2021).

Series [1] relates to Mycobacterium tuberculosis H37Rv. The series can be described thus: Minimum Inhibitory Concentration (MIC) determination, MABA assay. It counts as cell-based. Conditions: 168 h, 7H9 medium, 7 days at 37° C., alamar blue, read-out: Mtb MIC. As to the method: To assess the bacterial growth inhibitory effect of the compounds of the invention, MABA assay was performed with log phase culture of Mycobacterium tuberculosis H37Rv. Bacterial culture of optical density 0.6-0.8 was diluted to final density of 0.02 in 7H9 medium. 100 μl of diluted Mycobacterium tuberculosis H37Rv was incubated with the test compounds in microtiter plate. A drug free control containing DMSO also was also prepared. Following incubation of the compound with culture for 7 days at 37° C., 20 μl of 0.02% alamar blue (freshly prepared) was added in each well. The color was allowed to develop for 16 h at 37° C. Blue color in the well indicated no growth whereas pink color signifies growth in the well. MIC value is defined as the lowest concentration that prevents the color change from blue to pink. Fluorescence was measured at excitation at 530 nm and emission at 590 nm.

Series [2] in a line: Pharmacokinetics of the compounds in mice (IV and oral single dose). Format: in vivo. The settings on record: mouse, plasma, Balb/c mice; for bioavailability: PO 3 mg/kg vs IV 1 mg/kg, read-out: F(%) absolute oral bioavailability; for AUC(0-t) / Cmax: single dose, Oral (PO) 3 mg/kg suspension, IV 1 mg/kg, route not given. As to the method: Balb/c mice were obtained from Zydus Research Centre, Ahmedabad India, AAALAC Accreditation. All animals were housed in temperature-control rooms with appropriate light/dark cycles. The animals were overnight fasted before oral gavage dosing but were given access to water ad libitum. Food was provided 4 h after dosing. All animal studies were conducted according to protocols reviewed and approved by the Institutional Animal Care and Ethics Committee at the Zydus Research Centre. Compounds were dosed as a solution in 10% NMP and 10% solutol in Normal Saline (Intravenous (IV), 1 mg/kg) and homogenous suspension (Oral (PO), 3 mg/kg) in 0.5% Tween 80 in 0.5% methyl cellulose as a single dose in mice. For mouse composite PK profile was generated. Blood samples were collected at 0.08 (IV only), 0.25, 0.5, 1, 2, 4, 6, 7.5, and 24 h post-dose in Na-heparin coated micro centrifuge tubes. Blood samples were centrifuged to separate plasma which were then stored at −70° C. until analysis. PK parameters were calculated by non-compartmental analysis using Phoenix (Pharsight Corp., Mountain View, Calif.). A model was selected based on the vascular (IV bolus) or extravascular (PO) routes of administration. For the PO route, concentration at time zero was assumed to be zero. Plasma concentrations below the limit of quantitation were treated as zero concentration for the purpose of calculating the mean plasma concentration values. Pharmacokinetic parameters such as maximum plasma concentration (Cmax), area under the curve of concentration over the time (AUC (0-t)) and absolute oral bioavailability (F (%)) of the selected compounds are shown in Table 3.

Values after ≈ are worked out from the molar mass of the structure shown.

In the case of `COc1ncnc(Cn2nc(C(=O)NCC3(O)CC3)c3ncc(C)cc32)c1C` [Example 1, N-((1-hydroxycyclopropyl)methyl)-1-((6-methoxy-5-methylpyrimidin-4-yl)methyl)-6-methyl-1H-pyrazolo[4,3-b]pyridine-3-carboxamide], the MIC in series [1] came to 1.25 µM (≈ 0.478 µg/mL). Further, in series [2], the bioavailability came out at 100%, the exposure AUC(0-t) was 2850 ng·h/mL and the highest concentration (Cmax) stood at 1730 ng/mL.

With `CCOc1ncnc(Cn2nc(C(=O)NCC3(O)CC3)c3ncc(C)cc32)c1C` [Example 3, 1-((6-ethoxy-5-methylpyrimidin-4-yl)methyl)-N-((1-hydroxycyclopropyl)methyl)-6-methyl-1H-pyrazolo[4,3-b]pyridine-3-carboxamide], the MIC in series [1] was not above 0.625 µM. In series [2], the bioavailability turned out to be 100%, the AUC(0-t) is 2810 ng·h/mL and the peak level (Cmax) was 2720 ng/mL.

With `COc1nc(C)ccc1Cn1nc(C(=O)NCC2(O)CC2)c2ncc(C)cc21` [Example 9, N-((1-hydroxycyclopropyl)methyl)-1-((2-methoxy-6-methylpyridin-3-yl)methyl)-6-methyl-1H-pyrazolo[4,3-b]pyridine-3-carboxamide], in series [2], the bioavailability was found to be 78%, the AUC(0-t) is 2160 ng·h/mL and the Cmax turned out to be 1570 ng/mL.

As for `COCCNC(=O)c1nn(Cc2ncnc(OC)c2C)c2cc(C)cnc12` [Example 10, 1-((6-methoxy-5-methylpyrimidin-4-yl)methyl)-N-(2-methoxyethyl)-6-methyl-1H-pyrazolo[4,3-b]pyridine-3-carboxamide], in series [1], the MIC worked out at 5 µM (≈ 1.85 µg/mL). Also, in series [2], the bioavailability came out at 100%, the AUC(0-t) came to 5130 ng·h/mL and the highest level (Cmax) was 4000 ng/mL.

For `COc1ncnc(Cn2cc(C(=O)NCC3(O)CC3)c3ncc(C)nc32)c1C` [Example 11, N-((1-hydroxycyclopropyl)methyl)-5-((6-methoxy-5-methylpyrimidin-4-yl)methyl)-3-methyl-5H-pyrrolo[2,3-b]pyrazine-7-carboxamide], the MIC in series [1] came to 0.5 µM (≈ 0.191 µg/mL). For the same molecule, in series [2], the bioavailability amounted to 100%, the AUC(0-t) was found to be 2570 ng·h/mL and the highest level (Cmax) was 1660 ng/mL.

In the case of `COc1cnc2c(C(=O)NCC3(O)CC3)cn(Cc3ncnc(OC)c3C)c2n1` [Example 12, N-((1-hydroxycyclopropyl)methyl)-3-methoxy-5-((6-methoxy-5-methylpyrimidin-4-yl)methyl)-5H-pyrrolo[2,3-b]pyrazine-7-carboxamide], the MIC in series [1] amounted to 0.25 µM (≈ 0.0996 µg/mL). In series [2], the bioavailability is 100%, the AUC(0-t) was found to be 2920 ng·h/mL and the maximum concentration (Cmax) turned out to be 1720 ng/mL.

Consider `CCOc1ncnc(Cn2cc(C(=O)NCC3(O)CC3)c3ncc(C)nc32)c1C` [Example 13, 5-((6-ethoxy-5-methylpyrimidin-4-yl)methyl)-N-((1-hydroxycyclopropyl)methyl)-3-methyl-5H-pyrrolo[2,3-b]pyrazine-7-carboxamide], for which, in series [1], the MIC was 0.25 µM (≈ 0.0991 µg/mL). In series [2], the bioavailability was determined as 100%, the AUC(0-t) was determined as 2150 ng·h/mL and the Cmax amounted to 1320 ng/mL.

For `COc1ncnc(Cn2nc(C(=O)NCC3(O)CC3)c3ncc(C)nc32)c1C` [Example 14, N-((1-hydroxycyclopropyl)methyl)-1-((6-methoxy-5-methylpyrimidin-4-yl)methyl)-6-methyl-1H-pyrazolo[3,4-b]pyrazine-3-carboxamide], in series [2], the bioavailability came to 90%, the AUC(0-t) came to 1680 ng·h/mL and the maximum concentration (Cmax) was 1600 ng/mL.

Take `COc1ncnc(Cn2cc(C(=O)NCC3(O)CC3)c3ncc(C)cc32)c1C` [Example 85, N-((1-hydroxycyclopropyl)methyl)-1-((6-methoxy-5-methylpyrimidin-4-yl)methyl)-6-methyl-1H-pyrrolo[3,2-b]pyridine-3-carboxamide]: the MIC in series [1] is not above 0.0625 µM. Besides, in series [2], the bioavailability was determined as 94%, the AUC(0-t) was 2180 ng·h/mL and the Cmax was 1470 ng/mL.

What is called MIC is the lowest concentration that inhibits growth of the organism. As a reminder, the bioavailability is dose-corrected exposure relative to a reference, in per cent. For orientation: AUC(0-t) means the area under the concentration-time curve up to a stated or last time point. Lower therefore signals less exposure. For orientation: Cmax means the peak of the concentration-time curve.
